In ChEMBL document CHEMBL3351580, “Pyrano-isochromanones as IL-6 inhibitors: synthesis, in vitro and in vivo antiarthritic activity” (J Med Chem, 2014):
Calls of active or inactive are those of the source. The rule behind the calls is not given here.

How the values were obtained:
[1] = Inhibition of concanavalin A-induced cell proliferation of T cells (unknown origin) at 10 uM after 72 hrs by MTT assay; assay type: functional
THP-1 [2] = assay: Inhibition of LPS-induced IL6 production in human THP1 cells after 24 hrs; assay type: functional, cell-based; details: THP-1, 24 h
THP-1 [3] = assay: Inhibition of LPS-induced IL-1beta production in human THP1 cells at 10 uM after 24 hrs; assay type: functional; details: THP-1, 24 h
THP-1 [4] = assay: Inhibition of LPS-induced nitric oxide production in human THP1 cells at 10 uM after 24 hrs by Griess assay; assay type: functional; details: THP-1, 24 h
THP-1 [5] = assay: Cytotoxicity against human THP1 cells after 24 hrs by MTT assay; assay type: cell-based; details: THP-1, 24 h
[6] = Therapeutic index, ratio of cytotoxic IC50 for human THP1 cells by MTT assay to IC50 for inhibition of LPS-induced IL6 production in human THP1 cells; assay type: cell-based, THP-1; details: read-out: Ratio IC50
Mus musculus [7] = assay: Antiinflammatory activity in BALB/c mouse assessed as serum nitric oxide level at 10 mg/kg, po qd for 5 days followed by LPS challenge 1 hr after last compound dose on fifth day and measured 4 hrs post LPS challenge by Griess assay (reference value: 6.95 +/- 1.81 uM); assay type: functional
Mus musculus [8] = assay: Antiarthritic activity in DBA/1J mouse collagen-induced arthritis model assessed as reduction in anticollagen antibody IgG1 level at 3 to 30 mg/kg, po administered once daily for 49 days starting from onset of disease and measured after 49 days of disease onset by ELISA method; assay type: functional, organism-based
Mus musculus [9] = assay: Antiarthritic activity in DBA/1J mouse collagen-induced arthritis model assessed as reduction in TNFalpha level at 3 to 30 mg/kg, po administered once daily for 49 days starting from onset of disease and measured after 3 to 49 days of disease onset by ELISA method; assay type: functional, organism-based
[10] = target: Inhibitor of NF-kappa-B kinase (IKK) (Homo sapiens) (UniProt O14920+O15111+Q9Y6K9); assay: Inhibition of IKKbeta expression in human THP1 cells at 20 to 100 uM by Western blotting method; assay type: functional, cell-based; details: THP-1
[11] = Solubility in SGF solution; assay type: physicochemical
[12] = Apparent permeability from apical to basolateral side in human Caco2 cells; assay type: ADME, cell-based; details: Caco-2

## CCN(CC)Cc1c(O)c(OC)c(O)c2c1C(=O)O[C@@H]1[C@@H](O)[C@H](O)[C@@H](CO)O[C@@H]21
[1]
  inhibition at 10 µM: 53.7%
THP-1 [2]
  IC50: 0.166 µM
THP-1 [3]
  inhibition at 10 µM: 41%
THP-1 [4]
  inhibition at 10 µM: 41%
THP-1 [5]
  IC50: 110 µM
[6]
  selectivity ratio: > 400
Mus musculus [7]
  Activity: 5 µM
Mus musculus [8]
  inhibition: Active
Mus musculus [9]
  inhibition: Active
[10]
  inhibition: Active
[11]
  solubility: > 1500 µg/mL
[12]
  Papp A→B: 0.72 ×10⁻⁶ cm/s
